Source: ChEMBL document CHEMBL3272282, “Adrenergic agents. 6. Synthesis and potential beta-adrenergic agonist activity of some meta-substituted p-hydroxyphenylethanolamines related to salbutamol” (J Med Chem, 1977)

Legend:
Cavia porcellus [1] = species: Cavia porcellus; experiment: Agonist activity at beta-adrenoceptor in guinea pig trachea assessed as relaxation of spontaneously contracted tracheal smooth muscle; assay type: tissue-based
[2] = Agonist activity at beta-adrenoceptor in guinea pig atria assessed as cardiac stimulant activity by measuring change in rate of contraction of right atrial muscle; assay type: tissue-based, Cavia porcellus, Cardiac atrium
[3] = Agonist activity at beta-adrenoceptor in guinea pig atria assessed as cardiac stimulant activity by measuring change in rate of contraction of right atrial muscle at 92 uM; assay type: tissue-based, Cavia porcellus, Cardiac atrium
Cavia porcellus [4] = species: Cavia porcellus; experiment: Intrinsic activity at beta-adrenoceptor in guinea pig trachea assessed as relaxation of spontaneously contracted tracheal smooth muscle relative to papaverine; assay type: tissue-based
[5] = Separation ratio of ED25 at beta-adrenoceptor in guinea pig atria to ED50 for beta-adrenoceptor in guinea pig trachea; design: species or system Cavia porcellus
Cavia porcellus [6] = species: Cavia porcellus; experiment: Agonist activity at beta-adrenoceptor in guinea pig trachea assessed as relaxation of spontaneously contracted tracheal smooth muscle at 11 uM; assay type: tissue-based; design: scale not given: the % may be the effect or the level left
[7] = Agonist activity at beta-adrenoceptor in guinea pig atria assessed as cardiac stimulant activity by measuring change in rate of contraction of right atrial muscle at 56 uM; assay type: tissue-based, Cavia porcellus, Cardiac atrium
[8] = Agonist activity at beta-adrenoceptor in guinea pig atria assessed as cardiac stimulant activity by measuring change in rate of contraction of right atrial muscle at 0.12 mM; assay type: tissue-based, Cavia porcellus, Cardiac atrium; details: 120 µM
[9] = Intrinsic activity at beta-adrenoceptor in guinea pig atria assessed as cardiac stimulant activity by measuring change in rate of contraction of right atrial muscle relative to isoproterenol; assay type: ADME, tissue-based, Cavia porcellus, Cardiac atrium
Cavia porcellus [10] = species: Cavia porcellus; experiment: Agonist activity at beta-adrenoceptor in guinea pig trachea assessed as relaxation of spontaneously contracted tracheal smooth muscle at 12 uM; assay type: tissue-based; design: scale not given: the % may be the effect or the level left
[11] = Agonist activity at beta-adrenoceptor in guinea pig atria assessed as cardiac stimulant activity by measuring change in rate of contraction of right atrial muscle at 14 uM; assay type: tissue-based, Cavia porcellus, Cardiac atrium
[12] = Agonist activity at beta-adrenoceptor in guinea pig atria assessed as cardiac stimulant activity by measuring change in rate of contraction of right atrial muscle at 0.11 mM; assay type: tissue-based, Cavia porcellus, Cardiac atrium; details: 110 µM

ED25 [2]	Activity [3]	Activity [7]	Activity [8]	Ratio [9]	Activity [11]	Activity [12]	Structure (SMILES)	ED50 (Cavia porcellus [1])	Ratio (Cavia porcellus [4])	Ratio [5]	Activity (Cavia porcellus [6])	Activity (Cavia porcellus [10])
9.2 ×10⁻⁵ M	14%	–	–	–	–	–	CC(C)(C)NCC(O)c1ccc(O)c(C(O)CNC(C)(C)C)c1 (configuration not stated)	1.5 ×10⁻⁵ M	0.9	>6	–	–
–	–	8%	–	–	–	–	CC(C)(C)NCC(O)c1ccc(O)c(C(C)(C)O)c1 (configuration not stated)	1.1 ×10⁻⁵ M	–	–	30%	–
1.2 ×10⁻⁴ M	–	–	23%	–	–	–	COCC(O)c1cc(C(O)CNC(C)(C)C)ccc1O (configuration not stated)	5.3 ×10⁻⁷ M	0.9	236	–	–
–	–	–	–	0.7	–	–	CC(C)(C)NCC(O)c1ccc(O)c(CO)c1 (configuration not stated) [ALBUTEROL]	1.1 ×10⁻⁸ M	1	28	–	–
–	–	–	–	–	–	–	CC(C)NCC(O)c1ccc(O)c(O)c1 (configuration not stated) [ISOPROTERENOL]	7.1 nM	1	–	–	–
3 ×10⁻⁵ M	–	–	–	0.3	–	–	CC(C)(C)NCC(O)c1ccc(O)c(C(O)CO)c1 (configuration not stated)	9.9 ×10⁻⁸ M	1	303	–	–
1.4 ×10⁻⁵ M	–	–	–	–	0%	–	CC(C)(C)NCC(O)c1ccc(O)c(C(O)CS(C)(=O)=O)c1 (configuration not stated)	1.2 ×10⁻⁵ M	–	–	–	34%
5200 nM	–	–	–	0.3	–	–	CC(O)c1cc(C(O)CNC(C)(C)C)ccc1O (configuration not stated)	1.8 ×10⁻⁸ M	1	289	–	–
–	–	–	–	–	–	0%	COC(CO)c1cc(C(O)CNC(C)(C)C)ccc1O (configuration not stated)	3.4 ×10⁻⁷ M	0.7	>320	–	–

Structure (SMILES)	ED25 [2]	Activity [3]	Activity [7]	Activity [8]	Ratio [9]	Activity [11]	Activity [12]	ED50 (Cavia porcellus [1])	Ratio (Cavia porcellus [4])	Ratio [5]	Activity (Cavia porcellus [6])	Activity (Cavia porcellus [10])
CC(C)(C)NCC(O)c1ccc(O)c(O)c1 (configuration not stated) [COLTEROL]	7.1 nM	–	–	–	1	–	–	1.3 nM	1	5.5	–	–
